Assay results from ChEMBL document CHEMBL5727898, “Compounds and their use for reducing uric acid levels” (2020).

Target: Xanthine dehydrogenase/oxidase (Homo sapiens, UniProt P47989)
Assay: xanthine oxidase activity: Xanthine oxidase inhibition was determined using a standard fluorescence-based assay for xanthine oxidase activity (McHale A, Grimes H, Coughlan M P: Int J Biochem. 10:317-9, 1979) with minor variations. […] Experiments on test compounds were performed in triplicate in multi-well plates using 10 concentrations of each compound that ranged over a 3-fold dilution.

Sequence of Xanthine dehydrogenase/oxidase (P47989 whole entry): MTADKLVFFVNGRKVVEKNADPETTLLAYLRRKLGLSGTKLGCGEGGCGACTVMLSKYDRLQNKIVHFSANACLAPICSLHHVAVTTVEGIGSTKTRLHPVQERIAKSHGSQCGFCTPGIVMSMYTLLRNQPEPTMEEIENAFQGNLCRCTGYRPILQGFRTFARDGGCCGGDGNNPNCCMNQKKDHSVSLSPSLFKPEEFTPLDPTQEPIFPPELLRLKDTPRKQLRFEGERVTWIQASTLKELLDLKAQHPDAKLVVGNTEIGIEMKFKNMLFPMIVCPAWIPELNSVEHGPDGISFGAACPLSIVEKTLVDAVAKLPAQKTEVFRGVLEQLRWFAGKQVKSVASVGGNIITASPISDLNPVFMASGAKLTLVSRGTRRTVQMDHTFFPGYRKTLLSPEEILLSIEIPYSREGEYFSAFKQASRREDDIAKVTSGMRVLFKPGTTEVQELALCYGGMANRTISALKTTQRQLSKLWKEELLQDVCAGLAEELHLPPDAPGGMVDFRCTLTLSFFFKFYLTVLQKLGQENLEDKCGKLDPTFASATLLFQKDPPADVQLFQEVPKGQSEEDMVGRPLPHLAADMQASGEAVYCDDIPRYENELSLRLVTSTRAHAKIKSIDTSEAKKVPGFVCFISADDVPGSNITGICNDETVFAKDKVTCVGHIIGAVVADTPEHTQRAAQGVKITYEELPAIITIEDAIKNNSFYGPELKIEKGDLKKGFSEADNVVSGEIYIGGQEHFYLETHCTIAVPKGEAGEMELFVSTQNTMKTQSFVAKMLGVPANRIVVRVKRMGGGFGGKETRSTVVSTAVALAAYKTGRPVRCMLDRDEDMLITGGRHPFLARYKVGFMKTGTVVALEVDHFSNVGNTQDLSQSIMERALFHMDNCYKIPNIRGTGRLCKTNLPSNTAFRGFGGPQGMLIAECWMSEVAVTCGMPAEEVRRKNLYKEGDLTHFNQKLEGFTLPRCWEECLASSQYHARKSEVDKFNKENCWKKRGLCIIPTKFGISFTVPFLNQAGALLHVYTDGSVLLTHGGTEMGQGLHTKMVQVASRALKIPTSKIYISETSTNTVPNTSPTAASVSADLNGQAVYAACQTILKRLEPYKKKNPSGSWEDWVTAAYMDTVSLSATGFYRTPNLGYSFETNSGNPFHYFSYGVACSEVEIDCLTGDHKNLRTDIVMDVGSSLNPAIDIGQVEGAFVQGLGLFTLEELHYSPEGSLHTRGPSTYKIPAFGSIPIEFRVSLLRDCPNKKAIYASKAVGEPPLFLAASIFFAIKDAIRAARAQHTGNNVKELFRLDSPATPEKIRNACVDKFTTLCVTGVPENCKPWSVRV

In the case of `O=C(O)CSc1nnc(Br)n1-c1ccc(C2CC2)c2ccccc12`, the IC50 is reported as greater than 300 µM.
